Source: article PMC7156458, “Synthetic biology based construction of biological activity-related library of fungal decalin-containing diterpenoid pyrones” (Nature Communications, 2020)

Molecular target: Aβ42 (Homo sapiens, UniProt P05067)
Test: Th-T (thioflavin-T) assay of Aβ42 aggregation
Type: biochemical
Settings: for Th-T fluorescence, mean of three wells: compound at 50

Sequence of Aβ42 (P05067 672-713): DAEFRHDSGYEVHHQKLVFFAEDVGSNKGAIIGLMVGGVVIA

C=C1CCC2C(C)(CCC=C(C)C)C(O)CCC2(C)C1Cc1c(OC)oc(CO)c(C)c1=O (stereo not drawn) [Compound 12]
Th-T fluorescence, mean of three wells (reading M54 of time course): 1.475
Th-T fluorescence, mean of three wells (reading M55 of time course): 1.456
Th-T fluorescence, mean of three wells (reading M56 of time course): 1.467
Th-T fluorescence, mean of three wells (reading M57 of time course): 1.475
Th-T fluorescence, mean of three wells (reading M58 of time course): 1.462
Th-T fluorescence, mean of three wells (reading M59 of time course): 1.454
Th-T fluorescence, mean of three wells (reading M60 of time course): 1.444
Th-T fluorescence, mean of three wells (reading M61 of time course): 1.462
Th-T fluorescence, mean of three wells (reading M62 of time course): 1.445
Th-T fluorescence of Aβ42 with compound, mean of three wells (Fig. 7a source data) (concentration 10, unit not given, time-course reading M129): 2.41
Th-T fluorescence of Aβ42 with compound, mean of three wells (Fig. 7a source data) (concentration 10, unit not given, time-course reading M130): 2.392
Th-T fluorescence of Aβ42 with compound, mean of three wells (Fig. 7a source data) (concentration 10, unit not given, time-course reading M131): 2.376
Th-T fluorescence of Aβ42 with compound, mean of three wells (Fig. 7a source data) (concentration 10, unit not given, time-course reading M132): 2.3677
Th-T fluorescence of Aβ42 with compound, mean of three wells (Fig. 7a source data) (concentration 10, unit not given, time-course reading M133): 2.357
Th-T fluorescence of Aβ42 with compound, mean of three wells (Fig. 7a source data) (concentration 10, unit not given, time-course reading M134): 2.346
Th-T fluorescence of Aβ42 with compound, mean of three wells (Fig. 7a source data) (concentration 10, unit not given, time-course reading M135): 2.32
Th-T fluorescence of Aβ42 with compound, mean of three wells (Fig. 7a source data) (concentration 10, unit not given, time-course reading M136): 2.323
Th-T fluorescence of Aβ42 with compound, mean of three wells (Fig. 7a source data) (concentration 10, unit not given, time-course reading M137): 2.294
Th-T fluorescence of Aβ42 with compound, mean of three wells (Fig. 7a source data) (concentration 10, unit not given, time-course reading M138): 2.29
Th-T fluorescence of Aβ42 with compound, mean of three wells (Fig. 7a source data) (concentration 10, unit not given, time-course reading M139): 2.265
Th-T fluorescence of Aβ42 with compound, mean of three wells (Fig. 7a source data) (concentration 10, unit not given, time-course reading M140): 2.265
Th-T fluorescence of Aβ42 with compound, mean of three wells (Fig. 7a source data) (concentration 10, unit not given, time-course reading M141): 2.2429
Th-T fluorescence of Aβ42 with compound, mean of three wells (Fig. 7a source data) (concentration 10, unit not given, time-course reading M142): 2.235
Th-T fluorescence of Aβ42 with compound, mean of three wells (Fig. 7a source data) (concentration 10, unit not given, time-course reading M143): 2.219
Th-T fluorescence of Aβ42 with compound, mean of three wells (Fig. 7a source data) (concentration 10, unit not given, time-course reading M144): 2.211
Th-T fluorescence of Aβ42 with compound, mean of three wells (Fig. 7a source data) (concentration 10, unit not given, time-course reading M145): 2.191
Th-T fluorescence of Aβ42 with compound, mean of three wells (Fig. 7a source data) (concentration 20, unit not given, time-course reading M129): 2.166
Th-T fluorescence of Aβ42 with compound, mean of three wells (Fig. 7a source data) (concentration 20, unit not given, time-course reading M130): 2.19
Th-T fluorescence of Aβ42 with compound, mean of three wells (Fig. 7a source data) (concentration 20, unit not given, time-course reading M131): 2.201
Th-T fluorescence of Aβ42 with compound, mean of three wells (Fig. 7a source data) (concentration 20, unit not given, time-course reading M132): 2.206
Th-T fluorescence of Aβ42 with compound, mean of three wells (Fig. 7a source data) (concentration 20, unit not given, time-course reading M133): 2.24
Th-T fluorescence of Aβ42 with compound, mean of three wells (Fig. 7a source data) (concentration 20, unit not given, time-course reading M134): 2.215
Th-T fluorescence of Aβ42 with compound, mean of three wells (Fig. 7a source data) (concentration 20, unit not given, time-course reading M135): 2.232
Th-T fluorescence of Aβ42 with compound, mean of three wells (Fig. 7a source data) (concentration 20, unit not given, time-course reading M136): 2.218
Th-T fluorescence of Aβ42 with compound, mean of three wells (Fig. 7a source data) (concentration 20, unit not given, time-course reading M137): 2.204
Th-T fluorescence of Aβ42 with compound, mean of three wells (Fig. 7a source data) (concentration 20, unit not given, time-course reading M138): 2.229
Th-T fluorescence of Aβ42 with compound, mean of three wells (Fig. 7a source data) (concentration 20, unit not given, time-course reading M139): 2.207
Th-T fluorescence of Aβ42 with compound, mean of three wells (Fig. 7a source data) (concentration 20, unit not given, time-course reading M140): 2.233
Th-T fluorescence of Aβ42 with compound, mean of three wells (Fig. 7a source data) (concentration 20, unit not given, time-course reading M141): 2.207
Th-T fluorescence of Aβ42 with compound, mean of three wells (Fig. 7a source data) (concentration 20, unit not given, time-course reading M142): 2.239
Th-T fluorescence of Aβ42 with compound, mean of three wells (Fig. 7a source data) (concentration 20, unit not given, time-course reading M143): 2.219
Th-T fluorescence of Aβ42 with compound, mean of three wells (Fig. 7a source data) (concentration 20, unit not given, time-course reading M144): 2.234
Th-T fluorescence of Aβ42 with compound, mean of three wells (Fig. 7a source data) (concentration 20, unit not given, time-course reading M145): 2.206
Th-T fluorescence of Aβ42 with compound, mean of three wells (Fig. 7a source data) (concentration 50, unit not given, time-course reading M129): 1.589
Th-T fluorescence of Aβ42 with compound, mean of three wells (Fig. 7a source data) (concentration 50, unit not given, time-course reading M130): 1.591
Th-T fluorescence of Aβ42 with compound, mean of three wells (Fig. 7a source data) (concentration 50, unit not given, time-course reading M131): 1.579
Th-T fluorescence of Aβ42 with compound, mean of three wells (Fig. 7a source data) (concentration 50, unit not given, time-course reading M132): 1.5892
Th-T fluorescence of Aβ42 with compound, mean of three wells (Fig. 7a source data) (concentration 50, unit not given, time-course reading M133): 1.602
Th-T fluorescence of Aβ42 with compound, mean of three wells (Fig. 7a source data) (concentration 50, unit not given, time-course reading M134): 1.607
Th-T fluorescence of Aβ42 with compound, mean of three wells (Fig. 7a source data) (concentration 50, unit not given, time-course reading M135): 1.608
Th-T fluorescence of Aβ42 with compound, mean of three wells (Fig. 7a source data) (concentration 50, unit not given, time-course reading M136): 1.609
Th-T fluorescence of Aβ42 with compound, mean of three wells (Fig. 7a source data) (concentration 50, unit not given, time-course reading M137): 1.626
Th-T fluorescence of Aβ42 with compound, mean of three wells (Fig. 7a source data) (concentration 50, unit not given, time-course reading M138): 1.633
Th-T fluorescence of Aβ42 with compound, mean of three wells (Fig. 7a source data) (concentration 50, unit not given, time-course reading M139): 1.6439
Th-T fluorescence of Aβ42 with compound, mean of three wells (Fig. 7a source data) (concentration 50, unit not given, time-course reading M140): 1.64
Th-T fluorescence of Aβ42 with compound, mean of three wells (Fig. 7a source data) (concentration 50, unit not given, time-course reading M141): 1.647
Th-T fluorescence of Aβ42 with compound, mean of three wells (Fig. 7a source data) (concentration 50, unit not given, time-course reading M142): 1.661
